Assay results taken from US20210053957A1, “HERBICIDAL COMPOUNDS” (SYNGENTA PARTICIPATIONS AG, priority 2018, published 2021).

Tests used:
Assay in all cases: Post-emergence efficacy, glasshouse spray test
Assay type in all cases: in vivo
[1] = test system: Amaranthus palmeri (AMAPA); details: Application Rate 500 g/Ha, evaluated after 13 days; for pest or weed control at 500 g/ha: Amaranthus palmeri, post-emergence, 312 h, read-out: Control of weed species after post-emergence application, AMAPA (100=total damage to plant; 0=no damage to plant)
How it was run: (§1)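 Plants grown 14 days in glasshouse (24/16 °C day/night, 14 h light, 65% humidity), then sprayed post-emergence with compound formulated in acetone/IF50 emulsifier, diluted in 0.25% or 1% Empicol ESC70 plus 1% ammonium sulphate. Damage scored after 13 days, 0 (none) to 100 (total).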

[2] = test system: Chenopodium album (CHEAL); details: Application Rate 500 g/Ha, evaluated after 13 days; for pest or weed control at 500 g/ha: Chenopodium album, post-emergence, 312 h, read-out: Control of weed species after post-emergence application, CHEAL (100=total damage to plant; 0=no damage to plant)
How it was run: as §1

[3] = test system: Digitaria sanguinalis (DIGSA); details: Application Rate 500 g/Ha, evaluated after 13 days; for pest or weed control at 500 g/ha: Digitaria sanguinalis, post-emergence, 312 h, read-out: Control of weed species after post-emergence application, DIGSA (100=total damage to plant; 0=no damage to plant)
How it was run: as §1

[4] = test system: Echinochloa crus-galli (ECHCG); details: Application Rate 500 g/Ha, evaluated after 13 days; for pest or weed control at 500 g/ha: Echinochloa crus-galli, post-emergence, 312 h, read-out: Control of weed species after post-emergence application, ECHCG (100=total damage to plant; 0=no damage to plant)
How it was run: as §1

[5] = test system: Eleusine indica (ELEIN); details: Application Rate 500 g/Ha, evaluated after 13 days; for pest or weed control at 500 g/ha: Eleusine indica, post-emergence, 312 h, read-out: Control of weed species after post-emergence application, ELEIN (100=total damage to plant; 0=no damage to plant)
How it was run: as §1

[6] = test system: Euphorbia heterophylla (EPHHL); details: Application Rate 500 g/Ha, evaluated after 13 days; for pest or weed control at 500 g/ha: Euphorbia heterophylla, post-emergence, 312 h, read-out: Control of weed species after post-emergence application, EPHHL (100=total damage to plant; 0=no damage to plant)
How it was run: as §1

[7] = test system: Ipomoea hederacea (IPOHE); details: Application Rate 500 g/Ha, evaluated after 13 days; for pest or weed control at 500 g/ha: Ipomoea hederacea, post-emergence, 312 h, read-out: Control of weed species after post-emergence application, IPOHE (100=total damage to plant; 0=no damage to plant)
How it was run: as §1

[8] = test system: Lolium perenne (LOLPE); details: Application Rate 500 g/Ha, evaluated after 13 days; for pest or weed control at 500 g/ha: Lolium perenne, post-emergence, 312 h, read-out: Control of weed species after post-emergence application, LOLPE (100=total damage to plant; 0=no damage to plant)
How it was run: as §1

[9] = test system: Setaia fabei (SETFA); details: Application Rate 500 g/Ha, evaluated after 13 days; for pest or weed control at 500 g/ha: Setaria faberi, post-emergence, 312 h, read-out: Control of weed species after post-emergence application, SETFA (100=total damage to plant; 0=no damage to plant)
How it was run: as §1

Compound	pest or weed control at 500 g/ha [1] [%]	pest or weed control at 500 g/ha [2] [%]	pest or weed control at 500 g/ha [3] [%]	pest or weed control at 500 g/ha [4] [%]	pest or weed control at 500 g/ha [5] [%]	pest or weed control at 500 g/ha [6] [%]	pest or weed control at 500 g/ha [7] [%]	pest or weed control at 500 g/ha [8] [%]	pest or weed control at 500 g/ha [9] [%]	Control of weed species after post-emergence application, AMAPA (100=total damage to plant; 0=no damage to plant) [1]	Control of weed species after post-emergence application, CHEAL (100=total damage to plant; 0=no damage to plant) [2]	Control of weed species after post-emergence application, DIGSA (100=total damage to plant; 0=no damage to plant) [3]	Control of weed species after post-emergence application, ECHCG (100=total damage to plant; 0=no damage to plant) [4]	Control of weed species after post-emergence application, ELEIN (100=total damage to plant; 0=no damage to plant) [5]	Control of weed species after post-emergence application, EPHHL (100=total damage to plant; 0=no damage to plant) [6]	Control of weed species after post-emergence application, IPOHE (100=total damage to plant; 0=no damage to plant) [7]	Control of weed species after post-emergence application, LOLPE (100=total damage to plant; 0=no damage to plant) [8]	Control of weed species after post-emergence application, SETFA (100=total damage to plant; 0=no damage to plant) [9]
Cn1cnnc1-c1cc[n+](CCS(=O)(=O)[O-])nc1 [Compound A50]	100	100	100	100	70	100	70	80	100									
Cn1cnc(-c2cc[n+](CCC(=O)O)nc2)n1 [Compound A51]	100	100	90	90	70	90	30	60	90									
O=C(O)CC[n+]1ccc(-c2nc(C(F)(F)F)co2)cn1 [Compound A56]	100	80	70	90	80	90	30	50	80									
O=S(=O)([O-])CC[n+]1ccc(-c2nc(C(F)(F)F)co2)cn1 [Compound A57]	100	100	70	80	60	90	60	50	60									
O=S(=O)([O-])CCC[n+]1ccc(-c2ccon2)cn1 [Compound A59]	90	90	70	70	90	100	80	70	80									
O=S(=O)([O-])CC[n+]1ccc(-c2cnsc2)cn1 [Compound A60]	90	90	50	40	70	50	10	30	50									
O=S(=O)([O-])CC[n+]1ccc(-c2cscn2)cn1 [Compound A61]	100	70	80	50	60	40	20	30	70									
O=C(O)CC[n+]1ccc(-c2cnsc2)cn1 [Compound A62]	0	20	10	0	0	40	20	0	0									
O=C(O)CC[n+]1ccc(-c2ccsc2)cn1 [Compound A63]	0	30	20	20	20	40	20	10	30									
O=S(=O)([O-])CC[n+]1ccc(-c2ccon2)cn1 [Compound A64]	100	90	90	80	30	100	90	40	80									
Nc1nnc(-c2cc[n+](CCS(=O)(=O)[O-])nc2)s1 [Compound A65]	80	70	100	60	100	90	60	90	100									
O=S(=O)([O-])OCC[n+]1ccc(-c2ncco2)cn1 [Compound A67]	100	80	90	70	90	80	80	60	80									
O=S(=O)(O)CCCC[n+]1ccc(-c2ncco2)cn1 [Compound A68]										100	90	70	60	70	90	50	70	80
O=C(O)C[n+]1ccc(-c2ncco2)cn1 [Compound A71]	100	90	90	100	100	90	60	80	90									
CS(=O)(=O)[N-]C(=O)C[n+]1ccc(-c2ncco2)cn1 [Compound A72]	90	70	60	40	80	70	70	40	60									
O=S(=O)([O-])NCC[n+]1ccc(-c2ncco2)cn1 [Compound A73]	80	70	70	50	70	50	30	10	60									
CS(=O)(=O)C[N-]C(=O)CCC[n+]1ccc(-c2ncco2)cn1 [Compound A74]	100	90	90	40	100	70	80	60	80									
COP(=O)(CCC[n+]1ccc(-c2ncco2)cn1)OC.[Br-] [Compound A76]										30	20	60	30	70	40	30	30	40
